Test system: SMN protein
Test: cellular SMN ELISA (SMN protein elevation)
Type: cell-based
Details: myoblast cell line from SMNdelta7 mouse model, 24 hours treatment; for SMN activity Fold: fold activation over DMSO control
Procedure, shortened: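 Readout is fold SMN elevation versus DMSO plus EC50, measured by anti-SMN capture ELISA with 450 nm absorbance. Lysates came from a myoblast line of the SMNdelta7 mouse model after 24 h compound exposure, with dose ranges of 20 nM–10 μM (condition 1) or 100 pM–10 μM (condition 2).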

[1] = ELISA condition 1: compound concentration range 20 nM-10 uM
[2] = ELISA condition 2: compound concentration 100 pM-10 uM

| EC50 [1] [nM] | SMILES | SMN activity Fold [1] [Fold] | EC50 [2] [nM] | SMN activity Fold [2] [Fold] |
| --- | --- | --- | --- | --- |
| 310 | CN(c1ccc(-c2cc3ccc(OCCCNC(=O)OC(C)(C)C)cc3cc2O)nn1)C1CC(C)(C)NC(C)(C)C1 [Example 20-4, [3-(7-hydroxy-6-{6-[methyl-(2,2,6,6-tetramethyl-piperidin-4-yl)-amino]-pyridazin-3-yl}-naphthalen-2-yloxy)-propyl]-carbamic acid tert-butyl ester] | 2.32 |  |  |
|  | CN(c1ccc(-c2cc3ccc(OCCCN)cc3cc2O)nn1)C1CC(C)(C)NC(C)(C)C1 [Example 20-5, 7-(3-amino-propoxy)-3-{6-[methyl-(2,2,6,6-tetramethyl-piperidin-4-yl)-amino]-pyridazin-3-yl}-naphthalen-2-ol] |  | 6 | 2.66 |
|  | CC(=O)NCCCOc1ccc2cc(-c3ccc(N(C)C4CC(C)(C)NC(C)(C)C4)nn3)c(O)cc2c1 [Example 20-6, N-[3-(7-hydroxy-6-{6-[methyl-(2,2,6,6-tetramethyl-piperidin-4-yl)-amino]-pyridazin-3-yl}-naphthalen-2-yloxy)-propyl]-acetamide] |  | 50 | 2.18 |
|  | CN(c1ccc(-c2cc3ccc(OCCCO)cc3cc2O)nn1)C1CC(C)(C)NC(C)(C)C1 [Example 20-7, 7-(3-hydroxypropoxy)-3-(6-(methyl(2,2,6,6-tetramethylpiperidin-4-yl)amino)pyridazin-3-yl)naphthalen-2-ol] |  | 7 | 2.75 |
|  | COCCCOc1ccc2cc(-c3ccc(N(C)C4CC(C)(C)NC(C)(C)C4)nn3)c(O)cc2c1 [Example 20-8, 7-(3-methoxypropoxy)-3-(6-(methyl(2,2,6,6-tetramethylpiperidin-4-yl)amino)pyridazin-3-yl)naphthalen-2-ol] |  | 30 | 2.61 |
|  | CC1(C)CC(Oc2ccc(-c3cc4ccc(OCCN5CCOCC5)cc4cc3O)nn2)CC(C)(C)N1 [Example 20-9, 7-(2-morpholinoethoxy)-3-(6-((2,2,6,6-tetramethylpiperidin-4-yl)oxy)pyridazin-3-yl)naphthalen-2-ol] |  | 176 | 2.44 |
|  | Oc1cc2ccccc2cc1-c1ccc(CC2CCNCC2)nn1 [Example 21-1, 3-(6-(piperidin-4-ylmethyl)pyridazin-3-yl)naphthalen-2-ol] |  | 959 | 2.35 |
|  | CC1(C)CC(Cc2ccc(-c3ccc(-n4cccn4)cc3O)nn2)CC(C)(C)N1 [Example 21-2, 5-(1H-pyrazol-1-yl)-2-(6-((2,2,6,6-tetramethylpiperidin-4-yl)methyl)pyridazin-3-yl)phenol] |  | 206 | 2.69 |
|  | C[C@H](O)[C@@H]1CC(Oc2ccc(-c3ccc(-n4cccn4)cc3O)nn2)CC(C)(C)N1 (stereo partly shown) [Example 23-1] |  | 3650 | 2.32 |
|  | CN(c1ccc(-c2cc3ccc(C#N)cc3cc2O)nn1)C1CC(C)(C)NC(C)(C)C1 [Example 24-1, 7-hydroxy-6-(6-(methyl(2,2,6,6-tetramethylpiperidin-4-yl)amino)pyridazin-3-yl)-2-naphthonitrile] |  | 16 | 3.14 |
|  | CN(c1ccc(-c2cc3ccc(CN4CCCCC4)cc3cc2O)nn1)C1CC(C)(C)NC(C)(C)C1 [Example 24-2, 3-(6-(methyl(2,2,6,6-tetramethylpiperidin-4-yl)amino)pyridazin-3-yl)-7-(piperidin-1-ylmethyl)naphthalen-2-ol] |  | 157 | 2.33 |
|  | CN(c1ccc(-c2cc3ccc(CN4CCCC4)cc3cc2O)nn1)C1CC(C)(C)NC(C)(C)C1 [Example 24-3, 3-(6-(methyl(2,2,6,6-tetramethylpiperidin-4-yl)amino)pyridazin-3-yl)-7-(pyrrolidin-1-ylmethyl)naphthalen-2-ol] |  | 120 | 2.75 |
|  | CN(c1ccc(-c2cc3ccc(O)c(Br)c3cc2O)nn1)C1CC(C)(C)NC(C)(C)C1 [Example 24-4, 1-bromo-6-(6-(methyl(2,2,6,6-tetramethylpiperidin-4-yl)amino)pyridazin-3-yl)naphthalene-2,7-diol] |  | 16 | 3.06 |
|  | CN(c1ccc(-c2cc3ccc(O)c(Cl)c3cc2O)nn1)C1CC(C)(C)NC(C)(C)C1 [Example 24-5, 1-chloro-6-(6-(methyl(2,2,6,6-tetramethylpiperidin-4-yl)amino)pyridazin-3-yl)naphthalene-2,7-diol] |  | 47 | 2.99 |
|  | COc1ccc2cc(-c3ccc(N(C)C4CC(C)(C)NC(C)(C)C4)nn3)c(O)cc2c1 [Example 24-6, 7-methoxy-3-(6-(methyl(2,2,6,6-tetramethylpiperidin-4-yl)amino)pyridazin-3-yl)naphthalen-2-ol] |  | 6 | 2.39 |
|  | COc1ccc2cc(-c3ccc(N(C)C4CC(C)(C)N(C)C(C)(C)C4)nn3)c(O)cc2c1 [Example 24-7, 7-methoxy-3-(6-(methyl(1,2,2,6,6-pentamethylpiperidin-4-yl)amino)pyridazin-3-yl)naphthalen-2-ol] |  | 31 | 2.57 |
|  | CN(c1ccc(-c2cc3ccc(C4=CCOCC4)cc3cc2O)nn1)C1CC(C)(C)NC(C)(C)C1 [Example 24-8, 7-(3,6-dihydro-2H-pyran-4-yl)-3-(6-(methyl(2,2,6,6-tetramethylpiperidin-4-yl)amino)pyridazin-3-yl)naphthalen-2-ol] |  | 7 | 2.39 |
|  | CN(c1ccc(-c2cc3ccc(C4CCOCC4)cc3cc2O)nn1)C1CC(C)(C)NC(C)(C)C1 [Example 24-9, 3-(6-(methyl(2,2,6,6-tetramethylpiperidin-4-yl)amino)pyridazin-3-yl)-7-(tetrahydro-2H-pyran-4-yl)naphthalen-2-ol] |  | 338 | 2.65 |
|  | CN(c1ccc(-c2cc3ccc(C(F)F)cc3cc2O)nn1)C1CC(C)(C)NC(C)(C)C1 [Example 24-10, 7-(difluoromethyl)-3-(6-(methyl(2,2,6,6-tetramethylpiperidin-4-yl)amino)pyridazin-3-yl)naphthalen-2-ol] |  | 113 | 3.14 |
|  | CN(c1ccc(-c2cc3ccc(OC(C)(C)CCO)cc3cc2O)nn1)C1CC(C)(C)NC(C)(C)C1 [Example 24-11, 7-((4-hydroxy-2-methylbutan-2-yl)oxy)-3-(6-(methyl(2,2,6,6-tetramethylpiperidin-4-yl)amino)pyridazin-3-yl)naphthalen-2-ol] |  | 133 | 2.54 |
|  | CN(c1ccc(-c2cc3ccc(OCCC(C)(C)O)cc3cc2O)nn1)C1CC(C)(C)NC(C)(C)C1 [Example 24-12, 7-(3-hydroxy-3-methylbutoxy)-3-(6-(methyl(2,2,6,6-tetramethylpiperidin-4-yl)amino)pyridazin-3-yl)naphthalen-2-ol] |  | 70 | 2.80 |
|  | CN(c1ccc(-c2c(O)cc(-c3cn[nH]c3)cc2O)nn1)C1CC(C)(C)NC(C)(C)C1 [Example 25-1, 2-(6-(methyl(2,2,6,6-tetramethylpiperidin-4-yl)amino)pyridazin-3-yl)-5-(1H-pyrazol-4-yl)benzene-1,3-diol] |  | 84 | 2.58 |
|  | COc1cc(-c2cn[nH]c2)cc(O)c1-c1ccc(N(C)C2CC(C)(C)NC(C)(C)C2)nn1 [Example 25-2, 3-methoxy-2-(6-(methyl(2,2,6,6-tetramethylpiperidin-4-yl)amino)pyridazin-3-yl)-5-(1H-pyrazol-4-yl)phenol] |  | 8 | 3.44 |
|  | CC1(C)CC(Nc2ccc(-c3c(O)cc(-c4cn[nH]c4)cc3OC(F)(F)F)nn2)CC(C)(C)N1 [Example 25-3, 5-(1H-pyrazol-4-yl)-2-(6-((2,2,6,6-tetramethylpiperidin-4-yl)amino)pyridazin-3-yl)-3-(trifluoromethoxy)phenol] |  | 119 | 2.39 |
|  | CN(c1ccc(-c2c(O)cc(-c3cnn(C)c3)cc2OC(F)(F)F)nn1)C1CC(C)(C)NC(C)(C)C1 [Example 25-4, 2-(6-(methyl(2,2,6,6-tetramethylpiperidin-4-yl)amino)pyridazin-3-yl)-5-(1-methyl-1H-pyrazol-4-yl)-3-(trifluoromethoxy)phenol] |  | 199 | 2.30 |
|  | CN(c1ccc(-c2c(O)cc(-c3cn[nH]c3)cc2OC(F)(F)F)nn1)C1CC(C)(C)NC(C)(C)C1 [Example 25-5, 2-(6-(methyl(2,2,6,6-tetramethylpiperidin-4-yl)amino)pyridazin-3-yl)-5-(1H-pyrazol-4-yl)-3-(trifluoromethoxy)phenol] |  | 96 | 2.36 |
|  | CN(c1ccc(-c2c(O)cc(-c3ccn(C)c(=O)c3)cc2OC(F)(F)F)nn1)C1CC(C)(C)NC(C)(C)C1 [Example 25-6, 4-(3-hydroxy-4-(6-(methyl(2,2,6,6-tetramethylpiperidin-4-yl)amino)pyridazin-3-yl)-5-(trifluoromethoxy)phenyl)-1-methylpyridin-2(1H)-one] |  | 107 | 2.16 |
|  | COc1cc(-c2cnn(C)c2)cc(O)c1-c1ccc(N(C)C2CC(C)(C)NC(C)(C)C2)nn1 [Example 26-1, 3-methoxy-2-(6-(methyl(2,2,6,6-tetramethylpiperidin-4-yl)amino)pyridazin-3-yl)-5-(1-methyl-1H-pyrazol-4-yl)phenol] |  | 14 | 3.18 |
|  | COc1cc(-c2cnc3n2CCCC3)cc(O)c1-c1ccc(N(C)C2CC(C)(C)NC(C)(C)C2)nn1 [Example 26-2, 3-methoxy-2-(6-(methyl(2,2,6,6-tetramethylpiperidin-4-yl)amino)pyridazin-3-yl)-5-(5,6,7,8-tetrahydroimidazo[1,2-a]pyridin-3-yl)phenol] |  | 97 | 2.61 |

— patent US10195196B2, “1,4-disubstituted pyridazine analogs there of and methods for treating SMN-deficiency-related conditions” (NOVARTIS AG, priority 2012, dated 2019)
